Consider 13 molecules from ChEMBL document CHEMBL1201862, “PubChem BioAssay data set” (2004).

Among the test systems are BT-549; SW-620; SN12C; MDA-MB-231; M14; A549; UACC-257; NCI/ADR-RES; ACHN; HL-60; RXF 393; SK-MEL-28; U-251; CAKI-1; MCF7; SF-539; NCI-H23; SNB-75; Hs-578T; SF-268.
Holding throughout (test): DTP human tumour cell line panel, 48 h

Structures are written as SMILES.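 Exposure lasted 48 hours, with cells grown in 96-well plates and compounds tested at five concentrations. Here, GI50 denotes the concentration required for 50% inhibition of growth.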 Active and inactive are the calls of the source. Rule as the data show it: active = GI50 up to about 1.1 µM and inactive = higher.

A word on the GI50: it is the concentration at which growth is held to half of that of the control. In the case of `O=C(O)C/C(=C\c1ccco1)C(=O)O`, the GI50 with BT-549, in the experiment on SW-620, with SN12C, with MDA-MB-231, in the experiment on M14 and in the experiment with A549 was > 100 µM (inactive) each time. Moreover, the GI50 in the experiment with UACC-257, with NCI/ADR-RES, in the experiment with ACHN, in the experiment with HL-60, with RXF 393 and with SK-MEL-28 was > 100 µM (inactive) throughout. Also, the GI50 in the experiment with U-251, in the experiment on CAKI-1, in the experiment on MCF7, in the experiment with SF-539, in the experiment with NCI-H23 and in the experiment on SNB-75 was > 100 µM (inactive) throughout.

For `Oc1c(/N=N\c2ccccc2)c2cccc3ccc4cccc1c4c32`, the GI50 in the experiment with BT-549 was > 100 µM (inactive); in the experiment on Hs-578T, 33.7 µM (inactive); with SF-268, 45.9 µM (inactive); in the experiment on SW-620, > 100 µM (inactive); in the experiment on SN12C, > 100 µM (inactive); in the experiment with MDA-MB-231, 94.4 µM (inactive). In addition, the GI50 in the experiment with M14 was > 100 µM (inactive); in the experiment on A549 it was > 100 µM (inactive); in the experiment with UACC-257 it was > 100 µM (inactive); in the experiment on NCI/ADR-RES it was > 100 µM (inactive); with ACHN it was 26.8 µM (inactive); in the experiment with RXF 393, > 100 µM (inactive). The GI50 with SK-MEL-28 was > 100 µM (inactive); in the experiment on U-251, 42.7 µM (inactive); with CAKI-1, > 100 µM (inactive); with NCI-H23 it was > 100 µM (inactive); in the experiment with SNB-75, 38.6 µM (inactive).

In the case of `CCc1nc2c(O)ccc(O)c2nc1C`, the GI50 in the experiment on SF-268 was 18.7 µM (inactive); with SW-620, 2.15 µM (inactive); in the experiment with SN12C, 16 µM (inactive); in the experiment with M14, 15 µM (inactive); in the experiment with A549 it was 21.8 µM (inactive); with UACC-257, 17.4 µM (inactive). In addition, the GI50 in the experiment with ACHN was 10.7 µM (inactive); in the experiment on HL-60 it was 2.93 µM (inactive); with RXF 393, 11.5 µM (inactive); in the experiment on SK-MEL-28, 19.6 µM (inactive); in the experiment on U-251, 16.5 µM (inactive); in the experiment on CAKI-1, 18.1 µM (inactive). Also, the values for the GI50 with SF-539, with NCI-H23 and with SNB-75 were 17 µM (inactive), 18.6 µM (inactive) and 20.8 µM (inactive), respectively.

Consider `O=C1C(Cl)C(c2cc(Br)ccc2O)N1n1cnc2ccccc2c1=O` (stereo unspecified), for which the GI50 in the experiment with SF-268 was 2.53 µM (inactive); in the experiment on SW-620 it was 10 µM (inactive); in the experiment on SN12C, 20 µM (inactive); in the experiment with M14, 11.3 µM (inactive); with A549 it was 26.9 µM (inactive); in the experiment with UACC-257, 10.5 µM (inactive). Further, the GI50 in the experiment with ACHN was 11.8 µM (inactive); in the experiment with HL-60, 1.72 µM (inactive); in the experiment on RXF 393, 28.9 µM (inactive); in the experiment with SK-MEL-28 it was 14.1 µM (inactive); in the experiment with U-251, 10.7 µM (inactive); in the experiment on CAKI-1 it was 21.3 µM (inactive). The GI50 in the experiment on SF-539 was 18.5 µM (inactive); in the experiment on NCI-H23, 16.5 µM (inactive); in the experiment on SNB-75 it was 15.2 µM (inactive).

As to `Cc1cc(NCCCCCCCCNc2cc(C)nc3cc(N)ccc23)c2ccc(N)cc2n1`, the GI50 in the experiment with SF-268 was 26.2 µM (inactive); in the experiment on SN12C it was 15.8 µM (inactive); in the experiment with M14, 16.7 µM (inactive); with A549, 18.3 µM (inactive); with UACC-257 it was 12.7 µM (inactive); in the experiment with ACHN, 37.7 µM (inactive). For the same molecule, the GI50 with HL-60 was 0.566 µM (active); with RXF 393, 27.7 µM (inactive); with SK-MEL-28 it was 19.9 µM (inactive); in the experiment with U-251, 8.57 µM (inactive); with CAKI-1, 46.8 µM (inactive); with SF-539 it was 17 µM (inactive). Besides, the figures for the GI50 in the experiment with NCI-H23 and in the experiment with SNB-75 were 14.3 µM (inactive) and 16.4 µM (inactive), respectively.

Regarding `Fc1ccc(C2SCc3nc4ccccc4n32)c(F)c1` (stereo unspecified), the GI50 in the experiment with SF-268 was > 100 µM (inactive); with SW-620 it was > 100 µM (inactive); with SN12C it was > 100 µM (inactive); in the experiment on M14, 73.1 µM (inactive); in the experiment on A549, 83.8 µM (inactive); with UACC-257, 34.4 µM (inactive). For the same molecule, the GI50 in the experiment on ACHN is 82.4 µM (inactive); in the experiment with HL-60, 22 µM (inactive); in the experiment with RXF 393, 98.4 µM (inactive); in the experiment with U-251 it was 75.5 µM (inactive); with CAKI-1, > 100 µM (inactive); in the experiment on SF-539 it was > 100 µM (inactive). For the same molecule, the GI50 in the experiment with NCI-H23 was 46.3 µM (inactive); with SNB-75, > 100 µM (inactive).

On to `CN1N=C(c2ccncc2)OC1c1cccc(C(F)(F)F)c1` (stereo unspecified), for which the GI50 in the experiment on Hs-578T was > 100 µM (inactive); in the experiment with SF-268, > 100 µM (inactive); with SW-620, > 100 µM (inactive); in the experiment with SN12C, > 100 µM (inactive); in the experiment on MDA-MB-231, 41.2 µM (inactive); with M14, > 100 µM (inactive). Besides, the GI50 with A549 was > 100 µM (inactive); in the experiment with UACC-257, > 100 µM (inactive); in the experiment on NCI/ADR-RES, > 100 µM (inactive); in the experiment with ACHN, > 100 µM (inactive); in the experiment on HL-60 it was 81.3 µM (inactive); in the experiment on RXF 393, > 100 µM (inactive). The GI50 in the experiment on SK-MEL-28 was > 100 µM (inactive); with U-251, > 100 µM (inactive); in the experiment with SF-539, 27.5 µM (inactive); in the experiment on NCI-H23 it was > 100 µM (inactive); in the experiment with SNB-75 it was 4.36 µM (inactive).

Regarding `COc1cc(C)c(/C=C/C(=O)N2C(=O)OC[C@@H]2c2ccccc2)c(C)c1`, the GI50 with Hs-578T was 88.9 µM (inactive); in the experiment on SF-268 it was > 100 µM (inactive); with SW-620 it was > 100 µM (inactive); in the experiment with SN12C, > 100 µM (inactive); with MDA-MB-231 it was > 100 µM (inactive); in the experiment with M14 it was > 100 µM (inactive). For the same molecule, the GI50 in the experiment with A549 was > 100 µM (inactive); in the experiment on UACC-257 it was 88.7 µM (inactive); in the experiment on NCI/ADR-RES, 28.6 µM (inactive); with ACHN, > 100 µM (inactive); in the experiment with HL-60, 98.4 µM (inactive); in the experiment with RXF 393 it was 9.02 µM (inactive). In addition, the GI50 in the experiment on SK-MEL-28 was > 100 µM (inactive); in the experiment with U-251, > 100 µM (inactive); in the experiment with CAKI-1, > 100 µM (inactive); with SF-539, > 100 µM (inactive); with NCI-H23, > 100 µM (inactive); in the experiment on SNB-75 it was 34.3 µM (inactive).

With `COC(=O)/C(C#N)=C1\CCc2ccccc21`, the GI50 in the experiment with SF-268, with SW-620, in the experiment on SN12C, with M14, with A549 and in the experiment on UACC-257 was > 100 µM (inactive) throughout. In addition, the GI50 in the experiment with ACHN, with HL-60, with RXF 393, with SK-MEL-28, in the experiment with CAKI-1 and in the experiment on SF-539 was > 100 µM (inactive) in each case. The GI50 with NCI-H23 and in the experiment on SNB-75 was > 100 µM (inactive) each time.

Consider `CCCCCCCCCC1C(C)c2c([nH]c3ccccc23)C2C(=O)N(c3ccccc3)C(=O)C21` (stereo unspecified), for which the GI50 with SW-620 was 35.7 µM (inactive); with M14 it was 13.1 µM (inactive); with A549, 17.7 µM (inactive); in the experiment on UACC-257, 15.8 µM (inactive); in the experiment on ACHN, 10.8 µM (inactive); with HL-60, 3.71 µM (inactive). The GI50 with RXF 393 was 1.85 µM (inactive); in the experiment with SK-MEL-28 it was 2.29 µM (inactive); with U-251, 13.8 µM (inactive); in the experiment with CAKI-1 it was 14 µM (inactive); in the experiment with SF-539, 19.7 µM (inactive); in the experiment on NCI-H23, 3.72 µM (inactive). In the experiment with SNB-75, the GI50 is 13.5 µM (inactive).

In the case of `CC1NS(=O)(=O)N(C)C1=O` (stereo unspecified), the GI50 in the experiment on SF-268, in the experiment on SW-620, with SN12C, with M14, in the experiment on A549 and in the experiment with UACC-257 was > 100 µM (inactive) throughout. The GI50 in the experiment on ACHN, with HL-60, in the experiment with RXF 393, with SK-MEL-28, with U-251 and in the experiment on CAKI-1 was > 100 µM (inactive) in each case. Besides, the figures for the GI50 with SF-539, in the experiment with NCI-H23 and in the experiment with SNB-75 were > 100 µM (inactive), > 100 µM (inactive) and 81.8 µM (inactive), respectively.

As for `CC(C(=O)c1ccc(O)cc1)C1(O)C(=O)Nc2c(Cl)cc(Cl)cc21` (stereo unspecified), the GI50 in the experiment with SF-268 is > 76.9 µM (inactive); in the experiment on SW-620, 32.9 µM (inactive); in the experiment with SN12C it was 44.9 µM (inactive); in the experiment with M14, 26.7 µM (inactive); with A549 it was > 100 µM (inactive); in the experiment on UACC-257, 17.5 µM (inactive). Besides, the GI50 was 16.6 µM (inactive) with ACHN; 20.9 µM (inactive) with HL-60; 24.6 µM (inactive) in the experiment with RXF 393; 31.1 µM (inactive) in the experiment on SK-MEL-28; > 78 µM (inactive) in the experiment on U-251; > 100 µM (inactive) in the experiment with CAKI-1. Besides, the GI50 was 51.2 µM (inactive) in the experiment with SF-539, 59.8 µM (inactive) with NCI-H23 and 47.6 µM (inactive) in the experiment with SNB-75.

`COc1ccc2c(c1)OCC1(O)Cc3ccccc3OC21` (stereo unspecified): the GI50 with BT-549, in the experiment on SF-268, with SW-620, with SN12C, in the experiment with MDA-MB-231 and with M14 was > 100 µM (inactive) throughout. In addition, the GI50 with A549, in the experiment with UACC-257, in the experiment on NCI/ADR-RES, in the experiment on ACHN, in the experiment with U-251 and in the experiment on CAKI-1 was > 100 µM (inactive) throughout. The GI50 with MCF7, with SF-539, in the experiment with NCI-H23 and in the experiment on SNB-75 was > 100 µM (inactive) each time.
